The source of these data is ChEMBL document CHEMBL1139772, “Synthesis and SAR studies of novel antifungal 1,2,3-triazines” (Bioorg Med Chem Lett, 2007).

The test system of data set [1] is Blumeria graminis f. sp. tritici. Put plainly: Antifungal activity against Erysiphe graminis f. sp. tritici at […] relative to control. Format: functional.
The nature of data set [2]: Partition coefficient, log P by chromatographic hydrophobicity method. The data set is classed as physicochemical. To be noted: octanol/water.
Data set [3] is described as follows: Aqueous solubility at pH 7.0. The data set is classed as physicochemical.
Data set [4] can be described thus: Partition coefficient, log P of the compound. Particulars: octanol/water. Format: physicochemical.

Converted amounts (≈) assume the structure as drawn.

`COc1nnnc2c1sc1nc(O)c3c(c12)CCCC3` returned an Activity in data set [1] of 0%. Still for that read-out and setting: under `CCCOc1nc2sc3c(OC)nnnc3c2c2c1CCCC2` stands 100%; under `Sc1nnnc2c1sc1nc(N3CCOCC3)c3c(c12)CCCC3`, 0%; under `C1CCc2c(c(N3CCOCC3)nc3sc4c(N5CCOCC5)nnnc4c23)C1`, 0%. On the same count and under the same terms, under `Clc1nnnc2c1sc1nc(N3CCOCC3)c3c(c12)CCCC3` stands 0%. Broadly, the logP is the decadic logarithm of the partition coefficient of the neutral form, usually between octanol and water. Low values mean lower lipophilicity, high ones higher lipophilicity. One may read the solubility as the concentration that dissolves in the medium under given conditions. A higher solubility goes with much dissolved substance. In data set [1], `COCCNc1nc2sc3c(OC)nnnc3c2c2c1CCCC2` had an Activity of 33%. For the same molecule, the logP in data set [2] turned out to be 3.9. Besides, in data set [3], the solubility was 0.14 µg/mL (≈ 0.405 µM).

As to `c1coc(COc2nnnc3c2sc2nc(N4CCOCC4)c4c(c23)CCCC4)c1`, the Activity in data set [1] is 0%. Same read-out and setting: under `COc1nnnc2c1sc1nc(OS(=O)(=O)C(F)(F)F)c3c(c12)CCCC3` stands 40%; under `COc1nnnc2c1sc1nc(N3CCCC3)c3c(c12)CCCC3`, 92%. As for `CCOc1nnnc2c1sc1nc(N3CCOCC3)c3c(c12)CCCC3`, the Activity in data set [1] worked out at 100%. `CC(C)CCOc1nnnc2c1sc1nc(N3CCOCC3)c3c(c12)CCCC3` came in with an Activity in data set [1] of 0%. For `CC(C)Oc1nnnc2c1sc1nc(N3CCOCC3)c3c(c12)CCCC3`, the Activity in data set [1] was found to be 0%.

Regarding `COc1nnnc2c1sc1nc(N(C)Cc3ccccc3)c3c(c12)CCCC3`, the Activity in data set [1] is 100%. Regarding `COCCN(CCOC)c1nc2sc3c(OC)nnnc3c2c2c1CCCC2`, the Activity in data set [1] amounted to 67%. This molecule also yielded a logP in data set [2] of 4.09. The concentration in solution in data set [3] (solubility) was 0.79 µg/mL (≈ 1.96 µM). `CCN(CC)c1nnnc2c1sc1nc(N3CCOCC3)c3c(c12)CCCC3` registered an Activity in data set [1] of 0%. In data set [1], `COCCOc1nnnc2c1sc1nc(N3CCOCC3)c3c(c12)CCCC3` gave an Activity of 100%. In data set [2], this molecule registered a logP of 3.82. In addition, in data set [3], the solubility was 0.21 µg/mL (≈ 0.523 µM).

For `CSc1nnnc2c1sc1nc(N3CCOCC3)c3c(c12)CCCC3`, the Activity in data set [1] was determined as 100%. The molecule `CCCCN(C)c1nc2sc3c(OC)nnnc3c2c2c1CCCC2` showed an Activity in data set [1] of 83%. Still for that read-out and setting: under `CCCOc1nnnc2c1sc1nc(N3CCOCC3)c3c(c12)CCCC3` stands 94%. Regarding `CCN(CC)c1nc2sc3c(OC)nnnc3c2c2c1CCCC2`, the Activity in data set [1] was 100%. Besides, the logP in data set [2] stood at 5.32. The solubility in data set [3] amounted to 0.08 µg/mL (≈ 0.233 µM). In the same order, the values of `COCCOc1nnnc2c1sc1nc(N(C)CCOC)c3c(c12)CCCC3` are 100%, 4.12 and 0.48 µg/mL (≈ 1.19 µM). As for `COCCNc1nnnc2c1sc1nc(N3CCOCC3)c3c(c12)CCCC3`, the Activity in data set [1] stood at 0%. For the molecule `CCCCNc1nnnc2c1sc1nc(N3CCOCC3)c3c(c12)CCCC3`, the Activity in data set [1] turned out to be 0%. In data set [1], `c1ccc(NNc2nnnc3c2sc2nc(N4CCOCC4)c4c(c23)CCCC4)cc1` displayed an Activity of 0%. In turn, `c1ccc(CSc2nnnc3c2sc2nc(N4CCOCC4)c4c(c23)CCCC4)cc1` registered an Activity in data set [1] of 0%. Consider `CCSc1nnnc2c1sc1nc(N3CCOCC3)c3c(c12)CCCC3`, for which the Activity in data set [1] is 100%. Regarding `COc1nnnc2c1sc1nc(N3CCOCC3)c3c(c12)CCCC3`, in data set [1], the Activity is given as 100%. Also, the figures for the logP in data set [2] and in data set [4] were 4.06 and 4.25, respectively. Besides, in data set [3], the concentration in solution (solubility) was 0.08 µg/mL (≈ 0.224 µM). In the case of `C1CCc2c(c(N3CCOCC3)nc3sc4c(OC5CCCC5)nnnc4c23)C1`, the Activity in data set [1] came out at 0%. Still for that read-out and setting: under `NNc1nnnc2c1sc1nc(N3CCOCC3)c3c(c12)CCCC3` stands 0%. In turn, `COCCN(C)c1nc2sc3c(OC)nnnc3c2c2c1CCCC2` displayed an Activity in data set [1] of 100%. Further, the logP in data set [2] came to 4.31. In data set [3], this molecule yielded a solubility of 0.32 µg/mL (≈ 0.89 µM).

Consider `CC(Cc1ccc(C(C)(C)C)cc1)CN1C[C@@H](C)O[C@@H](C)C1` (stereo partly specified) [FENPROPIMORPH], for which the Activity in data set [1] amounted to 97%.
